In PubChem BioAssay (NCI):
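Five concentrations, 48 hours, 96-well plates. TGI: concentration producing complete growth inhibition.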

Assays:
Experiment in all cases: DTP human tumour cell line panel, 48 h
786-0 renal = tested on: 786-0 renal
A498 renal = tested on: A498 renal
ACHN renal = tested on: ACHN renal
CAKI-1 renal = tested on: CAKI-1 renal
EKVX NSCLC = tested on: EKVX NSCLC
HCC-2998 colon = tested on: HCC-2998 colon
HL-60(TB) leukemia = tested on: HL-60(TB) leukemia
IGROV1 ovarian = tested on: IGROV1 ovarian
KM12 colon = tested on: KM12 colon
M14 melanoma = tested on: M14 melanoma
OVCAR-4 ovarian = tested on: OVCAR-4 ovarian
RXF 393 renal = tested on: RXF 393 renal
SK-MEL-2 melanoma = tested on: SK-MEL-2 melanoma
TK-10 renal = tested on: TK-10 renal
U251 CNS = tested on: U251 CNS
UACC-257 melanoma = tested on: UACC-257 melanoma

Row | SMILES | TGI (786-0 renal) [µM] | TGI (A498 renal) [µM] | TGI (ACHN renal) [µM] | TGI (CAKI-1 renal) [µM] | TGI (EKVX NSCLC) [µM] | TGI (HCC-2998 colon) [µM] | TGI (HL-60(TB) leukemia) [µM] | TGI (IGROV1 ovarian) [µM] | TGI (KM12 colon) [µM] | TGI (M14 melanoma) [µM] | TGI (OVCAR-4 ovarian) [µM] | TGI (RXF 393 renal) [µM] | TGI (SK-MEL-2 melanoma) [µM] | TGI (TK-10 renal) [µM] | TGI (U251 CNS) [µM] | TGI (UACC-257 melanoma) [µM]
1 | Nc1ccc(N=Nc2ccc(-c3ccc(N=Nc4c(S(=O)(=O)O)cc5cc(S(=O)(=O)O)c(N=Nc6ccc([N+](=O)[O-])cc6)c(N)c5c4O)cc3)cc2)c2cc(S(=O)(=O)O)ccc12 | > 100 | > 100 | > 100 | > 100 | > 100 | > 100 | > 100 | > 100 | > 100 | > 100 | > 100 | > 100 | > 100 | > 100 | > 100 | > 100
2 | CCCCN(CCCC)C1(c2cc3ccccc3s2)CCCCC1 | 27.3 | 34.1 | 30.3 | 32.8 | 36.6 | 27.4 | 34.3 | 31.2 | 30.4 | 30.6 | 30 | 30.8 | 34.5 | 31.2 | 31.4 | 34
3 | COc1ccc(-c2nc(SCC(=O)N/N=C/c3ccc([N+](=O)[O-])cc3)[nH]c2-c2ccc(OC)cc2)cc1 | > 93.1 | 55.4 | 99.4 | > 75.6 | 98.8 | 31.5 | 24.7 | 74.8 | 35.9 | 32.3 | > 100 | 56.6 | 20.5 | > 100 | 29.4 | 49.4
4 | Cc1ccc(OC2CC(n3cnc4c(=O)[nH]c(Br)nc43)OC2Oc2ccc(C)cc2)cc1 (centres undefined) | 74.9 | > 100 | 38 | 75.7 | 62.8 | 47.3 | 59.2 | 66.9 | > 100 | 62.1 | > 100 | 60.5 | 75.8 | 49.8 | 79.9 | 62.2
5 | Cc1c(/C=N/NC(=S)Nc2ccc([N+](=O)[O-])cc2)c(=O)n(-c2ccccc2)n1C | 27.3 | 24 | 23.6 | 18.9 | 24.5 | > 100 | > 100 | 25.9 | 51.1 | 28.6 | 34.7 | 24.8 | 30.5 | 26.3 | 30.9 | > 100
6 | CN(NC(=O)c1ccc(Cl)cc1)C1=NCCCCN1 | > 100 | > 100 | > 100 | > 100 | > 100 | > 100 | > 100 | > 100 | > 100 | > 100 | > 100 | > 100 | > 100 | > 100 | > 100 | > 100
7 | CNC(=O)Nn1c(SC)nc2ccccc21 | > 100 | > 100 | > 100 | > 100 | > 100 | > 100 | > 100 | > 100 | > 100 | > 100 | > 100 | > 100 | > 100 | > 100 | > 100 | > 100
8 | CCOC(=O)c1sc2c(c1OC(=O)c1ccc(Cl)cc1Cl)c(=O)n(-c1ccccc1)c(=S)n2-c1ccccc1 | > 100 | 46.1 | > 100 | > 100 | 97.2 | > 74.6 | 30.9 | > 40.9 | > 42.3 | > 100 | > 100 | > 100 | 18.6 | > 100 | > 56.1 | > 100
9 | CCN1CCC(O)(/C=C/c2cccc(C)c2)C(C(=O)/C=C/c2cccc(C)c2)C1 (centres undefined) | 5.83 | 4.52 | 2.93 | 4.31 | 4.25 | 2.96 | > 100 | 4.12 | 3.27 | 7.47 | 13.6 | 3.57 | 5.56 | 3.92 | 3.31 | 7.31
